No end group written: not given here.

Assay [1] addresses T1, RXFP3 (Homo sapiens, UniProt Q9NSD7).
T1 construct: expressed in transfected cells
T1 sequence (Q9NSD7 1-469): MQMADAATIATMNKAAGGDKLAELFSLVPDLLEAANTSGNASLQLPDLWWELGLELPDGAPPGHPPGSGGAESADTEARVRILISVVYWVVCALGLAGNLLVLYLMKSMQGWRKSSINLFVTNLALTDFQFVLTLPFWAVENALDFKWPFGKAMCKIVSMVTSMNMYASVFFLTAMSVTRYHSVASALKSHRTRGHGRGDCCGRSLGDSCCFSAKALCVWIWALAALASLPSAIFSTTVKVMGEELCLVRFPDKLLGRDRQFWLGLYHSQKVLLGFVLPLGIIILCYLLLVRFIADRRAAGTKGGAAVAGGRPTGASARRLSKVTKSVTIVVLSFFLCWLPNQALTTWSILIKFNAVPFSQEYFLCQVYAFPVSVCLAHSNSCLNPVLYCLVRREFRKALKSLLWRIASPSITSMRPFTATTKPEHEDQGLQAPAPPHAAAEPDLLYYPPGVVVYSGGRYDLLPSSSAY
In words: Competition binding, Eu-labelled I5/R3, CHO-K1 cells expressing RXFP3. As to conditions: CHO-K1 cells stably expressing RXFP3; Eu-I5/R3 0.5 nM; one site competition fit; mean ± SEM, n in parentheses in cell (3; H3 amide 4), triplicate determinations; ** p<0.01 vs H3 acid (H3 amide, H3 A-acid); read-out: RXFP3 Eu-H3/I5 pKi (converted). The protocol: (§1) The receptor binding affinity of the peptides was measured using CHO-K1 cells stably expressing RXFP3 and RXFP4. The competition binding assays were carried out as previously described, [27]. Briefly, a single concentration of Eu-labelled I5/R3 (0.5 nM) or Eu-labelled mouse INSL5 (2.5 nM) were used in presence of increasing concentration of peptides. The data were analyzed using GraphPad PRISM 5 (GraphPad Inc., San Diego, USA). The europium binding curves were fitted to a one site competition curve and the pKi values were expressed as the mean ± SEM of at least three independent experiments with triplicate determinations within each assay.
(§2) Figure 2 Receptor binding affinity (pKi) and cAMP activity (pEC-50) curves of H3 relaxin and its variants at RXFP3. A) Competition binding curves of H3 relaxin variants using a single concentration of Eu-I5/R3 (0.5 nM) in the presence of increasing concentrations of the H3 relaxin peptides. B) RXFP3 activation curves of H3 relaxin variants measured in a cAMP activity assay in the presence of 5 µM forskolin. The data were expressed as mean ± SEM. from at least three independent experiments.

Assay [2] concerns the target T1, RXFP3. In words: cAMP activity (inhibition of forskolin-induced cAMP), CHO-K1 cells expressing RXFP3. The class given is cell-based. As to conditions: CHO-K1 RXFP3, pCRE-β-galactosidase reporter; forskolin 1 µM (method) / 5 µM (Fig. 2 legend); peptide 0.01 nM – 1 µM; mean ± SEM, n = 3, triplicate determinations; ** p<0.01 vs H3 acid (H3 amide, H3 A-acid); read-out: RXFP3 cAMP pEC50 (converted). Here is the method: (§3) The ability of the peptides to activate the receptors RXFP3/RXFP4 was assessed by measuring their influence on cAMP signalling in CHO-K1 cells stably expressing RXFP3 or RXFP4 transfected with a pCRE-β-galactosidase reporter gene construct as previously described. A single concentration of forskolin was used to stimulate cAMP signalling in cells expressing RXFP3 (1 µM) and RXFP4 (5 µM) and peptide induced inhibition of cAMP signalling was measured by adding increasing concentrations of the peptides (0.01 nM – 1 µM). The ability of the peptides to inhibit forskolin-induced cAMP response (pEC50) was measured and expressed as mean ± SEM from three independent experiments with triplicate determinations within each assay. The inhibition curves were fitted to a single-site sigmoidal dose-response curve with variable slope using Graphpad PRISM 5.
as §2

The target of assay [3] is T2, RXFP4 (Homo sapiens, UniProt Q8TDU9).
T2 construct: expressed in transfected cells
T2 sequence (Q8TDU9 whole entry, species assumed): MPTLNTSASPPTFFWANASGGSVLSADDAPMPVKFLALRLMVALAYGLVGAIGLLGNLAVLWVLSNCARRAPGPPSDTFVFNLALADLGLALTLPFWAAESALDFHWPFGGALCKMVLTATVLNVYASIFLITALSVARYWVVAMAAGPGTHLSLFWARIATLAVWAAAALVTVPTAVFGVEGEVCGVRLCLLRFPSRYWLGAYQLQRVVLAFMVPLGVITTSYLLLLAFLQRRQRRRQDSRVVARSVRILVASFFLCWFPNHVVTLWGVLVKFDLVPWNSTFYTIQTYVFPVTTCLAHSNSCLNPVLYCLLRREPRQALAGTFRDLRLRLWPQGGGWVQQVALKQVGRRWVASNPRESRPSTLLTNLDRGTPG
In words: Competition binding, Eu-labelled mouse INSL5, CHO-K1 cells expressing RXFP4. As to conditions: CHO-K1 cells stably expressing RXFP4; Eu-labelled mouse INSL5 2.5 nM; one site competition fit; mean ± SEM, n = 3, triplicate determinations; vs H3 acid: * H3 amide, ** p<0.01 H3 A-acid; read-out: RXFP4 Eu-INSL5 pKi (converted). Here is the method: as §1
(§4) Figure 3 Receptor binding affinity (pKi) and cAMP activity (pEC-50) curves of H3 relaxin and its variants at RXFP4. A) Competition binding curves of H3 relaxin variants at RXFP4 using a single concentration of Eu-INSL5 (2.5 nM) in the presence of increasing concentrations of the H3 relaxin peptides. B) RXFP4 activation curves of H3 relaxin variants measured in a cAMP activity assays in the presence of 1 µM forskolin. The data were expressed as mean ± SEM from at least three independent experiments.

In assay [4] the target is T2, RXFP4. In words: cAMP activity (inhibition of forskolin-induced cAMP), CHO-K1 cells expressing RXFP4. As to conditions: CHO-K1 RXFP4, pCRE-β-galactosidase reporter; forskolin 5 µM (method) / 1 µM (Fig. 3 legend); peptide 0.01 nM – 1 µM; mean ± SEM, n = 3, triplicate determinations; vs H3 acid: * H3 amide, ** p<0.01 H3 A-acid; read-out: RXFP4 cAMP pEC50 (converted). The class given is cell-based. The protocol: as §3, §4

For assay [5] the following is noted: cited from earlier work; for activity by C-terminal form: C-terminal amide vs acid. The source says:
The bioactivity of many polypeptide hormones often requires a form of post-translational modification of their precursors. An example of a widespread modification is C-terminal amidation which often leads to an increase in bioactivity of peptides [32]–[35]. In some cases, amidation of the C-terminus has been reported to have detrimental effect on the activity of peptides, [36]. […] In the case of relaxin family peptides, H2 relaxin and INSL3, both p ...

Consider `CC[C@H](C)[C@@H]1NC(=O)[C@H](Cc2ccccc2)NC(=O)[C@H](CCC(=O)O)NC(=O)[C@H](CCCNC(=N)N)NC(=O)CNC(=O)[C@@H](NC(=O)[C@H](CC(C)C)NC(=O)[C@H](CCCNC(=N)N)NC(=O)[C@@H](NC(=O)CNC(=O)[C@H](Cc2ccc(O)cc2)NC(=O)[C@@H]2CCCN2C(=O)[C@H](C)NC(=O)[C@H](C)NC(=O)[C@@H](N)CCCNC(=N)N)C(C)C)CSSC[C@@H]2NC(=O)[C@@H](NC(=O)[C@H](CO)NC(=O)[C@H](CO)NC(=O)[C@H](CO)NC(=O)[C@H](CC(C)C)NC(=O)CNC(=O)[C@H](C)NC(=O)[C@H](CC(C)C)NC(=O)[C@@H](NC(=O)[C@@H](N)CC(=O)O)C(C)C)CSSC[C@H](NC(=O)CNC(=O)[C@H](Cc3c[nH]c4ccccc34)NC(=O)[C@H](CCCCN)NC2=O)C(=O)N[C@@H](CO)C(=O)N[C@@H](CCCCN)C(=O)N[C@@H](CO)C(=O)N[C@@H](CCC(=O)O)C(=O)N[C@@H]([C@@H](C)CC)C(=O)N[C@@H](CO)C(=O)N[C@@H](CO)C(=O)N[C@@H](CC(C)C)C(=O)N[C@H](C(N)=O)CSSC[C@@H](C(=O)NCC(=O)NCC(=O)N[C@@H](CO)C(=O)N[C@@H](CCCNC(=N)N)C(=O)N[C@@H](Cc2c[nH]c3ccccc23)C(=O)O)NC(=O)[C@H]([C@@H](C)O)NC(=O)[C@H](Cc2ccccc2)NC(=O)[C@H]([C@@H](C)CC)NC(=O)[C@H](C(C)C)NC(=O)[C@H](C)NC(=O)[C@H](CCCNC(=N)N)NC1=O` [H3 B-acid], for which the Ki was 24 nM on RXFP3 [1] and 19.1 nM at RXFP4 [3]. For the same molecule, the results for the EC50 at RXFP3 [2] and at RXFP4 [4] were 0.955 nM and 1.32 nM, respectively.

As to `CC[C@H](C)[C@@H]1NC(=O)[C@H](Cc2ccccc2)NC(=O)[C@H](CCC(=O)O)NC(=O)[C@H](CCCNC(=N)N)NC(=O)CNC(=O)[C@@H](NC(=O)[C@H](CC(C)C)NC(=O)[C@H](CCCNC(=N)N)NC(=O)[C@@H](NC(=O)CNC(=O)[C@H](Cc2ccc(O)cc2)NC(=O)[C@@H]2CCCN2C(=O)[C@H](C)NC(=O)[C@H](C)NC(=O)[C@@H](N)CCCNC(=N)N)C(C)C)CSSC[C@@H]2NC(=O)[C@@H](NC(=O)[C@H](CO)NC(=O)[C@H](CO)NC(=O)[C@H](CO)NC(=O)[C@H](CC(C)C)NC(=O)CNC(=O)[C@H](C)NC(=O)[C@H](CC(C)C)NC(=O)[C@@H](NC(=O)[C@@H](N)CC(=O)O)C(C)C)CSSC[C@H](NC(=O)CNC(=O)[C@H](Cc3c[nH]c4ccccc34)NC(=O)[C@H](CCCCN)NC2=O)C(=O)N[C@@H](CO)C(=O)N[C@@H](CCCCN)C(=O)N[C@@H](CO)C(=O)N[C@@H](CCC(=O)O)C(=O)N[C@@H]([C@@H](C)CC)C(=O)N[C@@H](CO)C(=O)N[C@@H](CO)C(=O)N[C@@H](CC(C)C)C(=O)N[C@H](C(=O)O)CSSC[C@@H](C(=O)NCC(=O)NCC(=O)N[C@@H](CO)C(=O)N[C@@H](CCCNC(=N)N)C(=O)N[C@@H](Cc2c[nH]c3ccccc23)C(=O)O)NC(=O)[C@H]([C@@H](C)O)NC(=O)[C@H](Cc2ccccc2)NC(=O)[C@H]([C@@H](C)CC)NC(=O)[C@H](C(C)C)NC(=O)[C@H](C)NC(=O)[C@H](CCCNC(=N)N)NC1=O` [H3 acid], the Ki on RXFP3 [1] is 18.6 nM; on RXFP4 [3] it was 8.71 nM. The EC50 on RXFP4 [4] is 1.15 nM.

For the molecule `CC[C@H](C)[C@@H]1NC(=O)[C@H](Cc2ccccc2)NC(=O)[C@H](CCC(=O)O)NC(=O)[C@H](CCCNC(=N)N)NC(=O)CNC(=O)[C@@H](NC(=O)[C@H](CC(C)C)NC(=O)[C@H](CCCNC(=N)N)NC(=O)[C@@H](NC(=O)CNC(=O)[C@H](Cc2ccc(O)cc2)NC(=O)[C@@H]2CCCN2C(=O)[C@H](C)NC(=O)[C@H](C)NC(=O)[C@@H](N)CCCNC(=N)N)C(C)C)CSSC[C@@H]2NC(=O)[C@@H](NC(=O)[C@H](CO)NC(=O)[C@H](CO)NC(=O)[C@H](CO)NC(=O)[C@H](CC(C)C)NC(=O)CNC(=O)[C@H](C)NC(=O)[C@H](CC(C)C)NC(=O)[C@@H](NC(=O)[C@@H](N)CC(=O)O)C(C)C)CSSC[C@H](NC(=O)CNC(=O)[C@H](Cc3c[nH]c4ccccc34)NC(=O)[C@H](CCCCN)NC2=O)C(=O)N[C@@H](CO)C(=O)N[C@@H](CCCCN)C(=O)N[C@@H](CO)C(=O)N[C@@H](CCC(=O)O)C(=O)N[C@@H]([C@@H](C)CC)C(=O)N[C@@H](CO)C(=O)N[C@@H](CO)C(=O)N[C@@H](CC(C)C)C(=O)N[C@H](C(N)=O)CSSC[C@@H](C(=O)NCC(=O)NCC(=O)N[C@@H](CO)C(=O)N[C@@H](CCCNC(=N)N)C(=O)N[C@@H](Cc2c[nH]c3ccccc23)C(N)=O)NC(=O)[C@H]([C@@H](C)O)NC(=O)[C@H](Cc2ccccc2)NC(=O)[C@H]([C@@H](C)CC)NC(=O)[C@H](C(C)C)NC(=O)[C@H](C)NC(=O)[C@H](CCCNC(=N)N)NC1=O` [H3 amide], the Ki is 158 nM at RXFP3 [1] and 39.8 nM on RXFP4 [3]. Also, the EC50 at RXFP3 [2] is 7.24 nM; at RXFP4 [4], 4.17 nM.

As for Oxytocin: polypeptide hormone, the “activity by C-terminal form” value in assay [5] was “only active as a C-terminal amide form”.

Regarding angiotensin II: polypeptide hormone, the “activity by C-terminal form” value in assay [5] is given as “active as a C-terminal acid form”.

B1: INSL3: relaxin family peptide (peptide, UniProt P51460 21-55; P51460 106-131, looked up)
Insulin-like 3 B chain: LGPAPTPEMREKLCGHHFVRALVRVCGGPRWSTEA
Insulin-like 3 A chain: AAATNPARYCCLSGCTQQDLLTLCPY
modifications: not fully specified (bridges); ends and bridges not checked
notes: relaxin family peptide
B1: the “activity of acid vs amide form” value in assay [5] is “equally active either in acid or amide form”.
